# Tested on: corpus cavernosum of wild type, A2A-deficient and A2B-deficient mice
# Assay: Intracavernous injection of adenosine: intracavernous pressure (ICP) and penile erection
# Type: in vivo, mouse
# Description: FIG. 6. Different amounts of adenosine were injected into the corpus cavernosum of wild type, adenosine receptor A2A-deficient, and adenosine receptor A2B-deficient mice and the resulting change in ICP determined.
# Methods: ADA-deficient mice and SCD transgenic mice, a well accepted priapism animal model, are the only animals known in which a persistent and prolonged penile erection occurs spontaneously. […] We have measured intracavernosal pressure and corpus cavernosal strip (CCS) relaxation with or without PEG-ADA treatment and/or a series of adenosine receptor antagonists or agonists in wild type ADA-deficient mice, and corpus cavernosal strip (CCS) relaxation with or without PEG-ADA treatment and/or a series of adenosine receptor antagonists or agonists in SCD transgenic mice, in response to nerve stimulation. We have also measured the intracavernosal pressure and CCS relaxation with or without adenosine treatment in wild type and multiple adenosine receptor deficient mice.
smiles,measurement,setting,value
Nc1ncnc2c1ncn2[C@@H]1O[C@H](CO)[C@@H](O)[C@H]1O [adenosine],adenosine-induced increase in ICP,"A2B-deficient mice, injection into the corpus cavernosum",significantly reduced
same,intracavernous pressure (ICP) and its duration,"wild type mice, administration of adenosine",induced an increase in intracavernous pressure (ICP) and its duration
same,penile erection,"wild type mice, local (intracavernous) injection",resulted in penile erection

# Source: patent US20100254965A1, “Adenosine Signaling in Diagnosis, Treatment, and Prevention of Priapism and Erectile Dysfunction” (BOARD OF REGENTS ,THE UNIVERSITY OF TEXAS SYSTEM, priority 2006, published 2010)
